# Laboratory results: patent publication US12194080B2, “Methods for identification, assessment, prevention, and treatment of metabolic disorders using PM20D1 and N-lipidated amino acids” (Dana-Farber Cancer Institute, Inc., priority 2015, dated 2025)
# Key:
# [1] = tested on: differentiated primary BAT cells; assay: Cellular oxygen consumption rate (Seahorse XF24), differentiated primary BAT adipocytes; format: cell-based, mouse; conditions: 50 μM, in presence of oligomycin (1 μM)
# Description: C2C12, U2O5, and 293A cells were cultured in DMEM with 10% FBS and pen/strep. Primary inguinal (iWAT) and brown (BAT) adipocytes were obtained as follows. The stromal-vascular fraction of inguinal (iWAT) pad from 4-12 week old male mice was dissected, minced, and digested for 45 min. at 37° C. in PBS containing 10 mM CaCl2, 2.4 U/ml dispase II (Roche), and 1.5 U/ml collagenase D (Roche). The stromal-vascular fraction of brown fat (BAT) pads from newborn (P1-P14) pups was dissected, minced, and digested for 45 min at 37° C. in PBS containing 1.3 mM CaCl2, 120 mM NaCl, 5 mM KCl, 5 mM glucose, 100 mM HEPES, 4% BSA, and 1.5 mg/ml collagenase B (Roche). […]
# Cellular oxygen consumption rates were determined using an XF24 Extracellular Flux Analyzer (Seahorse Biosciences). […] C2C12 or U2OS cells were seeded at 30,000 or 50,000 cells/well, respectively in an XF24 cell culture microplate (V7-PS, Seahorse Bioscience) and analyzed the following day. Primary iWAT or BAT adipocytes were seeded at 15,000 cells/well, differentiation was induced the following day as described, and the cells were analyzed on day 5. […] For data expressed as a percentage of oligomycin-treated basal, the respiration at cycle 6 was normalized to 100%, and the maximum respiration at any time point between cycles 7 and 15 inclusive was used.
# [2] = tested on: primary inguinal fat cells, primary BAT cells, C2C12 cells, and U2OS cells; assay: Uncoupled respiration cellular assays (variety of cell types); format: cell-based; conditions: N-acyl amino acids at 10-100 uM
# [3] = tested on: U2OS cells; assay: Cellular oxygen consumption rate (uncoupled respiration), U2OS cells; format: cell-based, human; conditions: 50 μM, after oligomycin 1 μM
# Description: C2C12, U2O5, and 293A cells were cultured in DMEM with 10% FBS and pen/strep. Primary inguinal (iWAT) and brown (BAT) adipocytes were obtained as follows. The stromal-vascular fraction of inguinal (iWAT) pad from 4-12 week old male mice was dissected, minced, and digested for 45 min. at 37° C. in PBS containing 10 mM CaCl2, 2.4 U/ml dispase II (Roche), and 1.5 U/ml collagenase D (Roche). The stromal-vascular fraction of brown fat (BAT) pads from newborn (P1-P14) pups was dissected, minced, and digested for 45 min at 37° C. in PBS containing 1.3 mM CaCl2, 120 mM NaCl, 5 mM KCl, 5 mM glucose, 100 mM HEPES, 4% BSA, and 1.5 mg/ml collagenase B (Roche). Digested tissue was diluted with adipocyte culture media (DMEM/F-12, GlutaMAX™ supplement, Life Technologies, with 10% FBS and pen/strep) and centrifuged (600×g for 10 min.). The pellet was resuspended in 10 ml adipocyte culture media, strained through a 40 μm filter, and plated. Differentiation was induced by application of an adipogenic cocktail containing 5 μg/ml insulin (Sigma), 5 μM dexamethasone (Sigma), 250 μM isobutylmethylxanthine (Sigma), and 1 μM rosiglitazone (Cayman) for 2 days. Two days after induction, cells were maintained in adipocyte culture media containing 5 μg/ml insulin and 1 μM rosiglitazone.
# Cellular oxygen consumption rates were determined using an XF24 Extracellular Flux Analyzer (Seahorse Biosciences). Oligomycin was purchased from EMD Millipore, and FCCP and rotenone were purchased from Sigma. C2C12 or U2OS cells were seeded at 30,000 or 50,000 cells/well, respectively in an XF24 cell culture microplate (V7-PS, Seahorse Bioscience) and analyzed the following day. Primary iWAT or BAT adipocytes were seeded at 15,000 cells/well, differentiation was induced the following day as described, and the cells were analyzed on day 5. On the day of analysis, the cells were washed once with Seahorse respiration buffer (8.3 g/1 DMEM, 1.8 g/l NaCl, 1 mM pyruvate, 20 mM glucose, pen/strep), placed in 0.5 ml Seahorse respiration buffer, and incubated in a CO2-free incubator for 1 hr. Port injection solutions were prepared as follows (final concentrations in assay in parentheses): 10 μM oligomycin (1 μM final), […] amino acid (50 μM final), 2 μM FCCP (0.2 μM final), and 30 μM rotenone (3 μM final). The Seahorse program was run as follows: basal measurement, 3 cycles; inject port A (oligomycin), 3 cycles; inject port B (compounds), 8 cycles; inject port C (FCCP), 3 cycles; inject port D (rotenone), 3 cycles. Each cycle consisted of mix 4 min, wait 0 min, and measure 2 min. For data expressed as a percentage of oligomycin-treated basal, the respiration at cycle 6 was normalized to 100%, and the maximum respiration at any time point between cycles 7 and 15 inclusive was used.
# [4] = Blood levels after a single i.p. dose; format: in vivo; conditions: C57BL/6, mouse, ip, single 30 mg/kg i.p. dose, mean±SEM, n=3
# Description: Animal experiments were performed according to procedures approved by the Beth Israel Deaconess Medical Center IACUC. Mice were maintained in 12 h light-dark cycles at 22° C. and fed a standard irradiated rodent chow diet. All experiments on wild-type mice were performed with male C57BL/6 mice purchased from Jackson Laboratories, except for the AAV experiments, which were performed with male C57BL/6 mice from Charles River. UCP1-KO (stock #017476) and 16-20 week DIO mice (stock #380050) were obtained from Jackson Laboratories. For AAV injection experiments, mice were gently warmed using a 250 W clear infrared heat lamp, immobilized, and injected via tail vein with 10^10 virus/mouse (diluted in saline) in a total volume of 100 μl/mouse. Where indicated, mice were placed on high-fat diet (60% fat, Research Diets). For cold exposure experiments, mice were group housed and placed at 4° C. for the indicated times. For the preparation of C18:1-Phe for in vivo injections, compounds were dissolved in 18:1:1 v/v/v saline:Kolliphor® EL (Sigma Aldrich):DMSO and sonicated until homogeneous. Mice were administered compounds at 5 μl/g body weight at the indicated doses. For all injection experiments, mice were mock injected with saline daily for 3 days prior to the start of the experiments. […]
# [5] = tested on: BAT mitochondria; assay: Respiration of isolated crude BAT mitochondria; format: biochemical, mouse; conditions: 10-100 μM; 10 mM pyruvate and 5 mM malate as substrates
# Description: BAT pads from ten 6-12 week old male mice were harvested and minced on ice in isolation buffer (250 mM sucrose, 5 mM HEPES, and 1 mM EGTA) supplemented with 2% fatty acid-free BSA (Sigma). The tissue was then homogenized in a Teflon homogenizer and centrifuged (8,500×g, 10 min, 4° C.). The supernatant was discarded, the pellet was re-suspended in 20 ml isolation buffer supplemented with 1% fatty acid-free BSA, and centrifuged (700×g, 10 min, 4° C.). The supernatant was centrifuged one final time (8,500×g, 10 min, 4° C.). The pellet was re-suspended in isolation buffer supplemented with 1% fatty acid-free BSA (200 μl) to yield crude BAT mitochondria at 50-80 mg/ml. For respiration measurements, BAT mitochondria were diluted to in mitochondria respiration buffer (5 mM KCl, 4 mM KH2PO4, 5 mM HEPES, 1 mM EGTA, 1% fatty acid free BSA, 10 mM pyruvate, 5 mM malate, and 1 mM GDP) and plated at 15 μg/well (50 μl total volume) in an XF24 cell culture microplate. The plate was centrifuged (1000×g, 20 min, 4° C.), additional pre-warmed mitochondrial respiration buffer was added (450 μl), and respiration was measured on a XF24 Extracellular Flux Analyzer. The Seahorse program was run as follows: basal measurement, 2 cycles; inject port A (compounds), 1 cycle, inject port B (FCCP), 1 cycle, inject port C (rotenone), 1 cycle. Each cycle consisted of mix 0.5 min, wait 0 min, measure 2 min. […]
structure (smiles),measurement,setting,value
"CCCCCCCC/C=C\CCCCCCCC(=O)N[C@@H](Cc1ccccc1)C(=O)O [C18:1-Phe, Oleoyl-L-phenylalanine]",maximal OCR versus DMSO at the same time point,[1],156%
same,maximal OCR versus oligomycin-treated basal respiration,[1],198%
same,uncoupled respiration in cells,[2],increased uncoupled respiration
same,uncoupling activity (uncoupled respiration),[3],possessed uncoupling activity
same,concentration at 2 h,[4]; 2 h post-injection,3000 ± 300 nM
same,concentration at 6 h,[4]; 6 h post-injection,400 ± 100 nM
same,respiration of isolated mitochondria,[5],increased respiration in a dose-dependent manner
